Measured values reported in patent US8614241B2, “Ester compound and use thereof” (Sumitomo Chemical Company, Limited, priority 2010, dated 2013).

Tested on: German cockroaches (Blattella germanica)
Experiment: Knock-down test by spraying oil solution on German cockroaches
Assay type: in vivo
Details: 0.00625% (w/v) oil solution, 1.5 ml sprayed, ten adult German cockroaches (5 males, 5 females)
Method: Zero point zero zero six two five (0.00625) part of the compound of the present inventions (1) and (2) was dissolved in 10 parts of isopropyl alcohol and the solution was mixed with 89.99375 parts of deodorized kerosene to prepare a 0.00625% (w/v) oil solution.
Ten adult German cockroaches (Blattella germanica, 5 males and 5 females) were released in a test container (diameter 8.75 cm, 7.5 cm high, the bottom face is made of 16 mesh metallic wire), the inner face on which butter was applied, and the container was set at the bottom of a test chamber (bottom face: 46 cm×46 cm, height: 70 cm).
Each 1.5 ml of the oil solution of the compound of the present invention (1) and (2) was sprayed using a spray gun at a pressure of 0.4 kg/cm^2 from 60 cm higher than the upper face of the container. Thirty seconds after the spraying, the container was pulled out from the chamber. Two minutes after spraying, the number of knocked-down cockroaches was counted and a knock-down ratio was determined (repeated once). A knocked-down ratio was calculated by the following equation. Knocked-down ratio (%)=(Number of knocked-down cockroaches/Number of test cockroaches)×100 The results (2 minutes after spraying) are shown in Table 1.

| SMILES | Knock-down ratio (%) 2 minutes after spraying |
| --- | --- |
| C#CCn1c(C)nn(COC(=O)[C@@H]2[C@@H](/C=C(\C#N)C=C)C2(C)C)c1=O [compound of the present invention (1), 3-methyl-5-oxo-4-(2-propynyl)-4,5-dihydro-[1,2,4]triazolylmethyl=(1R)-trans-3-[(1Z)-2-cyano-1,3-butadienyl]-2,2-dimethylcyclopropane carboxylate] | 100% |
| C#CCn1c(C)nn(COC(=O)[C@@H]2[C@@H](/C=C(C#N)/C=C/C)C2(C)C)c1=O [compound of the present invention (2), 3-methyl-5-oxo-4-(2-propynyl)-4,5-dihydro-[1,2,4]triazolylmethyl=(1R)-trans-3-[(1Z,3E)-2-cyano-1,3-pentadienyl]-2,2-dimethylcyclopropane carboxylate] | 100% |
